# Patent US11168081B2, “Alkaloid derivative having angiogenesis inhibitory effect, and pharmaceutical composition containing same” (SEOUL NATIONAL UNIVERSITY R&DB FOUNDATION, priority 2017, dated 2021)
# Key:
# [1] = tested on: HUVECs; test: In vitro tube formation assay; format: cell-based, human; details: for IC50: Homo sapiens, HUVEC, HUVECs on Matrigel, 8 hours, VEGF-induced tube formation; for Selectivity Index (SI): ratio of the IC50 for HUVEC cell growth to the IC50 for tube formation
# Experimental: Matrigel (70 μl/well) was coated onto a 96-well plate and polymerized for 30 minutes at 37° C. under a 5% CO2 atmosphere. HUVECs (1.5×10^4 cells/well) and various concentrations of the compound were seeded onto each well of the Matrigel-coated 96-well plate. The cells were then incubated for 8 hours at 37° C. under a 5% CO2 atmosphere. The formation of endothelial cell tubular structures was visualized under an inverted microscope and photographed (Olympus Optical Co. Ltd., Tokyo, Japan). The inhibition rate of tube formation was determined using the following equation. tube formation inhibition rate (%)=[1−(average tube numbersample−average tube numberVEGF(−))/(average tube numberVEGF(+)−average tube numberVEGF(−))]×100 [Equation 1]
# The IC50 value was calculated using nonlinear regression analysis using TableCurve 2D v5.01 software (Systat Software Inc., Richmond, Calif., USA).
# (§1) The same experiment was carried out for sunitinib as a positive control.
# The endothelial cell tubular structure formation assay was performed in the same manner as in the Experimental Example 1.
# [2] = tested on: HUVECs; test: HUVEC cell growth assay (MTT); format: cell-based, human; details: for IC50: Homo sapiens, HUVEC, MTT, 24 hours, in the presence of VEGF (50 ng/mL)
# Experimental: Human umbilical vascular endothelial cells (HUVECs) were obtained from the ATCC (Rockville, Md.) and cultured in EGM-2 (Lonza, Walkersville, Md.) supplemented with 10% FBS at 37° C. under a 5% CO2 atmosphere.
# Cell growth was assessed by MTT assay. HUVECs (8×10^3 cells/well) were seeded onto a 96-well plate with EGM-2 medium supplemented with 10% FBS for 24 hours. The next day, the culture medium was removed, and the cells were then incubated with serum-free medium for 12 hours. Following serum starvation, the cells were cultured in fresh 2% FBS/EBM-2 medium containing various concentrations of the test compound for 24 hours in the presence of VEGF (50 ng/mL). After the incubation, an MTT solution was added, and the plate was incubated for additional 4 hours. The formazan product was dissolved in DMSO, and the absorbance was detected at 570 nm using a VersaMax ELISA microplate reader (Molecular Devices, Sunnyvale, Calif.).
# as §1
# [3] = tested on: human umbilical vascular endothelial cell (HUVEC); details: Korean Patent Application Publication No. 10-2012-0122705; cited from earlier work
Compound,IC50 [1],Selectivity Index (SI) [1],IC50 [2],higher inhibitory effect on the cell growth of HUVECs ([2]; sunitinib relative to compound (I-7)),inhibition of human umbilical vascular endothelial cell (HUVEC) [3]
"CCc1ccc2cc(C(c3ccc(O)c(O)c3)n3cc(CCN(C)C)nn3)oc2c1 (centres unmarked) [Compound I-8, 4-((4-(2-(dimethylamino)ethyl)-1H-1,2,3-triazol-1-yl)(6-ethylbenzofuran-2-yl)methyl)benzene-1,2-diol]",6.1 µM,3.61,22 µM,–,–
"CCc1ccc2nc(C(c3ccc(OC)c(OC)c3)n3cc(CN4CCCCC4)nn3)sc2c1 (centres unmarked) [Compound I-15, 2-((3,4-dimethoxyphenyl)(4-(piperidin-1-ylmethyl)-1H-1,2,3-triazol-1-yl)methyl)-6-ethylbenzo[d]thiazole]",2.46 µM,>40.65,> 100 µM,–,–
"CCc1ccc2nc(C(c3ccc(OC)c(OC)c3)n3cnc(CCN4CCCCC4)c3)sc2c1 (centres unmarked) [Compound I-12, 2-((3,4-dimethoxyphenyl)(4-(2-(piperidin-1-yl)ethyl)-1H-imidazol-1-yl)methyl)-6-ethylbenzo[d]thiazole]",3.4 µM,22.23,75.6 µM,–,–
"CCc1ccc2nc(C(c3ccc(OC)c(OC)c3)n3cnc(CCNC4CCCC4)c3)sc2c1 (centres unmarked) [Compound I-13, N-(2-(1-((3,4-dimethoxyphenyl)(6-ethylbenzo[d]thiazol-2-yl)methyl)-1H-imidazol-4-yl)ethyl)cyclopentanamine]",1.56 µM,19.63,30.6 µM,–,–
"CCCN(CCC)CCc1cn(C(c2ccc(OC)c(OC)c2)c2nc3ccc(CC)cc3s2)cn1 (centres unmarked) [Compound I-11, N-(2-(1-((3,4-dimethoxyphenyl)(6-ethylbenzo[d]thiazol-2-yl)methyl)-1H-imidazol-4-yl)ethyl)-N-propylpropan-1-amine]",1.82 µM,21.18,38.6 µM,–,–
"CCc1ccc2nc(C(c3ccc(OC)c(OC)c3)n3cnc(CCN(C)C)c3)sc2c1 (centres unmarked) [Compound I-10, 2-(1-((3,4-dimethoxyphenyl)(6-ethylbenzo[d]thiazol-2-yl)methyl)-1H-imidazol-4-yl)-N,N-dimethylethan-1-amine]",4.87 µM,–,> 100 µM,–,–
"CCCNCCc1cn(C(c2ccc(OC)c(OC)c2)c2nc3ccc(CC)cc3s2)nn1 (centres unmarked) [Compound I-3, N-(2-(1-((3,4-dimethoxyphenyl)(6-ethylbenzo[d]thiazol-2-yl)methyl)-1H-1,2,3-triazol-4-yl)ethyl)propan-1-amine]",1.39 µM,27.8,38.6 µM,–,–
"CCc1ccc2nc(C(c3ccc(O)c(O)c3)n3cc(CCN(C)C)nn3)oc2c1 (centres unmarked) [Compound I-9, 4-((4-(2-(dimethylamino)ethyl)-1H-1,2,3-triazol-1-yl)(6-ethylbenzo[d]oxazol-2-yl)methyl)benzene-1,2-diol]",> 20 µM,–,> 100 µM,–,–
"CCN(CC)CCNC(=O)c1c(C)[nH]c(/C=C2\C(=O)Nc3ccc(F)cc32)c1C [Sunitinib, sunitinib, reference compound]",0.546 µM,18.2,9.92 µM,4.8 fold,–
"CCc1ccc2nc(C(c3ccc(OC)c(OC)c3)n3cnc(CCN4CCCC4)c3)sc2c1 (centres unmarked) [Compound I-14, 2-((3,4-dimethoxyphenyl)(4-(2-(pyrrolidin-1-yl)ethyl)-1H-imidazol-1-yl)methyl)-6-ethylbenzo[d]thiazole]",1.53 µM,62.56,95.7 µM,–,–
"CCc1ccc2nc(C(c3ccc(O)c(O)c3)n3cc(CCN(C)C)nn3)sc2c1 (centres unmarked) [Compound I-1, 4-((4-(2-(dimethylamino)ethyl)-1H-1,2,3-triazol-1-yl)(6-ethylbenzo[d]thiazol-2-yl)methyl)benzene-1,2-diol]",3.04 µM,12.3,37.3 µM,–,–
"CCc1ccc2nc(C(c3ccc(OC)c(OC)c3)n3cc(CCCN4CCCCC4)nn3)sc2c1 (centres unmarked) [Compound I-16, 2-((3,4-dimethoxyphenyl)(4-(3-(piperidin-1-yl)propyl)-1H-1,2,3-triazol-1-yl)methyl)-6-ethylbenzo[d]thiazole]",2.28 µM,13.38,30.5 µM,–,–
"CCc1ccc2nc(C(c3ccc(OC)c(OC)c3)n3cc(CCN4CCOCC4)nn3)sc2c1 (centres unmarked) [Compound I-6, 4-(2-(1-((3,4-dimethoxyphenyl)(6-ethylbenzo[d]thiazol-2-yl)methyl)-1H-1,2,3-triazol-4-yl)ethyl)morpholine]",3.93 µM,–,> 100 µM,–,–
"CCc1ccc2nc(C(c3ccc(OC)c(OC)c3)n3cc(CCN4CCCC4)nn3)sc2c1 (centres unmarked) [Compound I-5, 2-((3,4-dimethoxyphenyl)(4-(2-(pyrrolidin-1-yl)ethyl)-1H-1,2,3-triazol-1-yl)methyl)-6-ethylbenzo[d]thiazole]",2.84 µM,24.8,70.3 µM,–,–
"CCc1ccc2nc(C(c3ccc(OC)c(OC)c3)n3cc(CCN(C)C)nn3)sc2c1 (centres unmarked) [Compound I-2, 2-(1-((3,4-dimethoxyphenyl)(6-ethylbenzo[d]thiazol-2-yl)methyl)-1H-1,2,3-triazol-4-yl)-N,N-dimethylethan-1-amine]",8.27 µM,11.3,93.5 µM,–,–
"CN(C)CCc1cn(C(c2ccc(O)c(O)c2)C2Oc3ccc(C=COS(=O)(=O)[O-])cc3O2)cn1.[Na+] (centres unmarked) [wondonin, Wondonin]",–,–,–,–,does not inhibit
"CCc1ccc2nc(C(c3ccc(OC)c(OC)c3)n3cc(CCNC4CCCC4)nn3)sc2c1 (centres unmarked) [Compound I-4, N-(2-(1-((3,4-dimethoxyphenyl)(6-ethylbenzo[d]thiazol-2-yl)methyl)-1H-1,2,3-triazol-4-yl)ethyl)cyclopentanamine]",1.02 µM,19.0,19.4 µM,–,–
